Results from patent US7261906B2, “Anti-cancer therapy agent of arsenic hexoxide (As4O6) of a natural chemical substance and its pharmaceutical composition” (priority 1998, dated 2007).
Values joined by “and” are separate entries in the source; they are usually repeats but may differ in a detail not shown here. Identical values can stand only once. Marks after values point to notes of the source that are not given here.

Legend:
[1] = system: 3T3-fibroblast cells; assay: Cytotoxicity in 3T3-fibroblast cells, time course (XTT method); format: cell-based, murine
Description: (§1) Cloned tumor cells of P388 leukemia, L1210 leukemia, L5178Y lymphoma, Colon26-M3.1 carcinoma, and B16-BL6 melanoma, from mice, and K562 leukemia, liver carcinoma HEP-G2, Hs578T breast cancer, AN-3-CA adenocarcinoma, DLD colon carcinoma, and HeLa epitheloid carcinoma, from human beings, were cultured in EMM, DMEM, or RMPI-1640 culture media containing 7.5% fetal bovine serum (FBS), as described in ATCC manual. […] Tumor cells in test wells were incubated in 5% CO2 incubator at 37° C. for 2 days.
For further study of the cytotoxicity of each substance on cloned tumor cells, 3T3-fibroblast cells were cultured in test wells as described in experiment 1.

[2] = system: cloned tumor cells of mice and human beings; assay: Direct cytotoxicity of HD-2 relative to cisplatin over the clones; format: cell-based; settings: 48 hours of incubation, mean over clones of Table 5
Description: as §1

[3] = Subacute toxicity, oral administration once a day for 4 weeks; format: in vivo, Rats (Sprague Dawley strain); settings: for ALT / ALB / AST / BUN / CHOL / CREAT / Ca / GLU / TB / TG / TP: female rats
Description: The subacute toxicity of oral administration of HD-2 was evaluated according to toxicity assessment criteria described in Article 96-8 of Notice on rood and Drug Safety (Apr. 16, 1994). Rats (Sprague Dawley . strain) were used for experiments, as was the case for acute toxicity experiments. […]
Following items were observed during the period of study. • 1) General symptoms: General symptoms, such as anorchism, salivation, diarrhea, vomiting, polyuria, anuria, and fecal change and the severity of these symptoms were evaluated once a day during the study period. • 2) Food consumption: Twice a week, the amount of consumed food and the remaining amount were checked per cage. • 3) Water consumption: Twice a week, the amount of consumed water and the remaining amount were checked per cage. • 4) Weight: Weights were measured twice a week until the end of the study. • 5) Urinalysis: Urine samples were collected during study period from 5 randomly selected rats per study subgroup and appearance, volume, and colors were recorded. Using urinalysis kits (N-multistix of Amersham), pH, gravity, leukocyte, protein, ketone body, urobilinogen, glucose and blood urea nitrogen were measured. • 6) Eye examination: Ophthalmoscopic examination of 5 randomly selected rats per study subgroup was performed to evaluate the external appearance, cornea, and:fundus of the eye. • 7) Hematological and biochemical analysis: Routine blood test was done to measure red blood cell count, white blood cell count, hemoglobin concentration, number of monocytes and lymphocytes, and blood coagulation time. Biochemical analysis of serum was done to measure the activity of […], aspartate transaminase, alkaline phosphate, and albumin. • 8) Size and weight of organs: For every animal studied, weight and size of major organs were measured relative to body weight. Measured organs included liver, kidney, spleen, heart, adrenal gland, brain, thyroid gland, ovary, and testis. • 9) Pathological examination: Organs were fixed in formalin after measurement of weight and size and fixed tissues were cut into […] slices using microtome (AO Rotate Microtome) and stained with hematoxylin and eosin for microscopic study.

[4] = system: B16-BL6 melanoma cells; assay: Inhibitory effect of orally-administered HD-2 on cancer metastasis (lung); format: in vivo, mice
From the text: (§2) B16-BL6 melanoma cells or colon26-M3.1 carcinoma cells were inoculated into mice and number of metastatic tumor masses appearing in lungs was counted. […] The peak activity was observed a: 1-mg dose with very high anticancer efficacy (86%). […] This indicated oral administration of HD-2 was quite effective for treatment of established cancer.

[5] = system: colon26-M3.1 carcinoma cells; assay: Inhibitory effect of intravenously-administered HD-2 on cancer metastasis (lung); format: in vivo, mice
Description: as §2
In this experiment, HD-2 was administered intravenously with dosage less than 500 mg/kg body weight per day.

[6] = system: B16-BL6 melanoma; assay: Neovascularization and tumor size after intradermal melanoma injection; format: in vivo, C57BL/6 mice; settings: one milligram orally three days after tumor injection
Description: The in vivo mechanism of anticancer effect of HD-2 was studied in mice. After suspending 4×10^5 cells of B16-BL6 melanoma in 50% PBS, they were injected intradermally into 2 sites on the back of 6- to 7-week old C57BL/6 mice. Three days after the tumor injection, one milligram of HD-2 was given orally and size of inoculated melanoma and number of blood vessels at and around tumor sites were measured. Control group was treated with oral administration of PBS.

[7] = 1 μg intravenous administration +1
[8] = 10 μg intravenous administration +1
[9] = 10 μg intravenous administration +7
[10] = 100 μg intravenous administration +1

SMILES: O1[As]2O[As]3O[As]1O[As](O2)O3 [HD-2, arsenic hexoxide (As4O6)]
- morphological observation of cells ([1]; 3T3, 34 hours of treatment): complete necrosis of tumor cells
- cytotoxicity, times as high as that of cisplatin ([1]; 3T3, 48 hours after administration): about 270 times
- cytotoxic effect over time (FIG. 3) ([1]; 3T3, time course after the addition, XTT): demonstrated cytotoxic effect starting from 4 hours
- direct cytotoxicity, times as high as cisplatin [2]: 50 times
- ALT ([3]; High 100 mg/kg/day oral): 29.67 μ/l
- ALB ([3]; High 3.0 g/kg/day oral): 3.33 g/dL
- AST ([3]; High 3.0 g/kg/day oral): 77.87* μ/l
- BUN ([3]; High 3.0 g/kg/day oral): 13.13 mg/dL
- CHOL ([3]; High 3.0 g/kg/day oral): 44.33 mg/dL
- CREAT ([3]; High 3.0 g/kg/day oral): 0.47 mg/dL
- Ca ([3]; High 3.0 g/kg/day oral): 8.73 mg/dL
- GLU ([3]; High 3.0 g/kg/day oral): 63.03 mg/dL
- TB ([3]; High 3.0 g/kg/day oral): 0.18 mg/dL
- TG ([3]; High 3.0 g/kg/day oral): 62.33 mg/dL
- TP ([3]; High 3.0 g/kg/day oral): 5.93 g/dL
- ALB ([3]; Low 0.03 g/kg/day oral): 3.60 g/dL
- ALT ([3]; Low 0.03 g/kg/day oral): 27.10 μ/l
- AST ([3]; Low 0.03 g/kg/day oral): 70.10* μ/l
- BUN ([3]; Low 0.03 g/kg/day oral): 11.43 mg/dL
- CHOL ([3]; Low 0.03 g/kg/day oral): 42.33 mg/dL
- CREAT ([3]; Low 0.03 g/kg/day oral): 0.40 mg/dL
- Ca ([3]; Low 0.03 g/kg/day oral): 8.77 mg/dL
- GLU ([3]; Low 0.03 g/kg/day oral): 67.70 mg/dL
- TB ([3]; Low 0.03 g/kg/day oral): 0.14 mg/dL
- TG ([3]; Low 0.03 g/kg/day oral): 50.00 mg/dL
- TP ([3]; Low 0.03 g/kg/day oral): 6.27 g/dL
- ALB ([3]; Medium 0.3 g/kg/day oral): 3.70 g/dL
- ALT ([3]; Medium 0.3 g/kg/day oral): 27.00 μ/l
- AST ([3]; Medium 0.3 g/kg/day oral): 87.53 μ/l
- BUN ([3]; Medium 0.3 g/kg/day oral): 13.18 mg/dL
- CHOL ([3]; Medium 0.3 g/kg/day oral): 40.50 mg/dL
- CREAT ([3]; Medium 0.3 g/kg/day oral): 0.53 mg/dL
- Ca ([3]; Medium 0.3 g/kg/day oral): 8.95 mg/dL
- GLU ([3]; Medium 0.3 g/kg/day oral): 70.00 mg/dL
- TB ([3]; Medium 0.3 g/kg/day oral): 0.16 mg/dL
- TG ([3]; Medium 0.3 g/kg/day oral): 56.25 mg/dL
- TP ([3]; Medium 0.3 g/kg/day oral): 6.53 g/dL
- kidney pathology: hemosiderin in and atrophy of proximal tubular epithelium ([3]; high-dose group (100 mg/kg body weight), 4 weeks): observed to a slight degree
- kidney pathology ([3]; medium-dose group, 4 weeks): no such pathology was observed
- Hematological and biochemical study vs control groups ([3]; oral, once a day for 4 weeks): did not reveal any significant difference
- clinical symptoms incl. changes in weight and consumption of food and water ([3]; oral, once a day for 4 weeks): no specific clinical symptom
- urinalysis and eye examination ([3]; oral, once a day for 4 weeks): any significant abnormality was not observed
- fatal cases ([3]; oral, once a day for 4 weeks, 1, 10, 100 mg per kg body weight): fatal cases were not observed
- inhibitory rate ([4]; 0.1 mg oral administration +1): 38.5%
- number of metastatic masses, mean ±SD ([4]; 0.1 mg oral administration +1): 75 ± 28
- inhibitory rate ([4]; 0.1 mg oral administration +7): 41.4%
- number of metastatic masses, mean ±SD ([4]; 0.1 mg oral administration +7): 95 ± 23
- inhibitory rate ([4]; 1 mg oral administration +1): 86% and 86.1%
- number of metastatic masses, mean ±SD ([4]; 1 mg oral administration +1): 17 ± 9
- inhibitory rate ([4]; 1 mg oral administration +7): 70% and 70.4%
- number of metastatic masses, mean ±SD ([4]; 1 mg oral administration +7): 48 ± 19
- inhibitory rate ([4]; 10 mg oral administration +1): 63.1%
- inhibitory rate ([4]; 10 mg oral administration +7): 66.1%
- number of metastatic masses, mean ±SD ([4]; 10 mg oral administration +7): 55 ± 13
- number of metastatic masses, mean ±SD ([4]; 10 mg oral administration +1 day after inoculation): 45 ± 25
- anti-metastatic effect compared to the control group ([4]; oral administration, 0.1 to 10 mg): significant anti-metastatic effect
- inhibitory rate [5, 7]: 66.5%
- number of metastatic mass, mean ± SD [5, 7]: 52 ± 28
- inhibitory rate [5, 8]: 92.9%
- number of metastatic mass, mean ± SD [5, 8]: 11 ± 19
- inhibitory rate [5, 9]: 67.5%
- number of metastatic mass, mean ± SD [5, 9]: 50 ± 11
- inhibitory rate [5, 10]: 90.3%
- number of metastatic mass, mean ± SD [5, 10]: 15 ± 15
- anti-metastatic efficacy ([5]; 10- to 100-μg intravenous): above 90%
- size of solid tumor mass [6]: decreased significantly
- number of new blood vessels at and around tumor sites ([6]; FIG. 5): tended to decrease
